Non-standard residues stand in square brackets, D forms with d. Residues, ends and D or L forms follow the SMILES beside them. *: point of attachment. Nle = CCCC[C@H](N)C(=O)O; For = O=C* Bounds are passed on as bounds.

Test [1] has as its target T1, R190/K192 FPR (Homo sapiens, UniProt P21462, N192K). The test can be described thus: biochemical. It counts as binding.
For test [2], the target named is T2, R190/N192 FPR (Homo sapiens, UniProt P21462). Description: biochemical. In kind it is biochemical.
Test [3] addresses T3, W190/N192 FPR (Homo sapiens, UniProt P21462, R190W). In kind it is cell-based.
Test [4] deals with T2, R190/N192 FPR. It counts as cell-based.
Test [5] concerns the target T3, W190/N192 FPR. The test can be described thus: biochemical. It counts as biochemical.
The target in test [6] is T1, R190/K192 FPR. It counts as cell-based.
Test [7] addresses T3, W190/N192 FPR. In kind it is cell-based. This is another data set of the same source.
Test [8] concerns the target T1, R190/K192 FPR. In kind it is cell-based. This is another data set of the same source.
Test [9] has as its target T1, R190/K192 FPR. The test can be described thus: biochemical. In kind it is biochemical.
Test [10] addresses T3, W190/N192 FPR. The test can be described thus: biochemical. It counts as binding.
Test [11] addresses T2, R190/N192 FPR. In kind it is cell-based. The source holds these as a separate data set.
Test [12] concerns the target T2, R190/N192 FPR. The test can be described thus: biochemical. It counts as binding.
Test [13] has as its system FIV. The settings on record: cited from earlier work.
The test system of test [14] is FPR. The following applies: cited from earlier work.
The target of test [15] is HIV-2 envelope 37mer (Human immunodeficiency virus 2). Description: flow.
In test [16] the target is Coronavirus 229E spike 36mer (Human coronavirus 229E). The test can be described thus: flow.
Test [17] has as its target Coronavirus 229E spike N-terminal 7mer (Human coronavirus 229E). Description: flow.
The target of test [18] is SARS coronavirus spike 12mer (SARS coronavirus). Description: flow.
Test [19] addresses Coronavirus OC43 spike 36mer (Human coronavirus OC43). Description: flow.
Test [20] addresses Coronavirus 229E spike 12mer (Human coronavirus 229E). Description: flow.
The target of test [21] is HKU-1 coronavirus spike peptide (Human coronavirus HKU1). The test can be described thus: flow.
Test [22] concerns the target ETYIK-(Alexa Fluor)WPWWVWL (Human coronavirus 229E). The test can be described thus: flow.
Test [23] concerns the target Coronavirus 229E spike 5mer (Human coronavirus 229E). The test can be described thus: flow.
The target in test [24] is reverse 229E peptide. The test can be described thus: flow.
Test [25] concerns the target MMWLL. Description: flow.
Test [26] concerns the target Coronavirus 229E spike 7mer (Human coronavirus 229E). Description: flow.
Test [27] addresses HIV-1 gp41 12mer (Human immunodeficiency virus 1). Description: flow.

Turning to `CCCC[C@H](NC=O)C(=O)N[C@@H](CC(C)C)C(=O)N[C@@H](Cc1ccccc1)C(=O)O` [Formyl-NleLeuPhe, Formyl-Nle–Leu–Phe, reference compound] (For-[Nle]-Leu-Phe-OH), the “fold higher affinity for R190/K192 than for W190/N192” value in test [1] was around 3 fold. Moreover, the “stimulation of GTPγS binding” value in test [2], in test [5] and in test [9] was “stimulated GTPγS binding” throughout. Besides, the β-arrestin translocation entry in test [3], in test [8] and in [11] was “caused β-arrestin translocation” each time. The surface receptor downregulation amounted to 76 ± 1.2% in test [4], 85 ± 0.4% in [6] and 76 ± 3% in test [7]. Moreover, the “fold reduction of affinity on substitution of R190 with W190” value in test [10] amounted to 2.5 fold.
As usually defined, the Ki is a measure of affinity in units of concentration, obtained from inhibition or displacement. A higher Ki goes with lower affinity. Broadly, the EC50 is the concentration that produces a half-maximal response. Low values mean a more potent agent, high ones a less potent agent. As for `CC[C@H](C)[C@H](NC(=O)[C@H](Cc1ccc(O)cc1)NC(=O)[C@@H](NC(=O)[C@@H](N)CCC(=O)O)[C@@H](C)O)C(=O)N[C@@H](CCCCN)C(=O)N[C@@H](Cc1c[nH]c2ccccc12)C(=O)N1CCC[C@H]1C(=O)N[C@@H](Cc1c[nH]c2ccccc12)C(=O)N[C@@H](Cc1c[nH]c2ccccc12)C(=O)N[C@H](C(=O)N[C@@H](Cc1c[nH]c2ccccc12)C(=O)N[C@@H](CC(C)C)C(=O)O)C(C)C`, the inhibitory constant (Ki) in [1] was 370 ± 30 nM; in [12] it was 533 ± 30 nM; in [10] (Ki (nM ± SEM) for binding of peptides to W190/N192 FPR) it was 270 ± 10 nM. Also, the EC50 was 1600 ± 400 nM in test [2], 300 ± 120 nM in test [5] and 1600 ± 440 nM in test [9]. Also, the “stimulation of GTPγS binding” value in [2], in [5] and in [9] was “neither ETYIKWPWWVWL nor MYVKWPWYVWL had any effect” throughout. Moreover, the “inhibition of arrestin translocation in response to formyl-Nle–Leu–Phe” value was determined as 77 ± 10% in test [3], 20 ± 9% in test [8] and 18 ± 4% in test [11]. The β-arrestin translocation result in [3], in test [8] and in test [11] was “did not cause translocation” each time. Further, the “inhibition of receptor downregulation in response to formyl-Nle–Leu–Phe” value amounted to 16 ± 2% in test [4], 20 ± 2% in test [6] and 64 ± 6% in [7]. In addition, the surface receptor downregulation result in [4], in test [6] and in test [7] was “did not cause surface receptor downregulation” each time.
Consider QLQKWEDWVRWI, for which, in [13], the “inhibition of FIV infection (potency)” value is on record as “low nanomolar”.
For the molecule WRWWWW, in [14], the “effect on FPR” value was “did not affect FPR”.

B1: Formyl peptide receptor (FPR R190/N192), P21462 (protein)
chain: METNSSLPTNISGGTPAVSAGYLFLDIITYLVFAVTFVLGVLGNGLVIWVAGFRMTHTVTTISYLNLAVADFCFTSTLPFFMVRKAMGGHWPFGWFLCKFVFTIVDINLFGSVFLIALIALDRCVCVLHPVWTQNHRTVSLAKKVIIGPWVMALLLTLPVIIRVTTVPGKTGTVACTFNFSPWTNDPKERINVAVAMLTVRGIIRFIIGFSAPMSIVAVSYGLIATKIHKQGLIKSSRPLRVLSFVAAAFFLCWSPYQVVALIATVRIRELLQGMYKEIGIAVDVTSALAFFNSCLNPMLYVFMGQDFRERLIHALPASLERALTEDSTQTSDTATNSTLPSAEVELQAK
By Kd is commonly meant the equilibrium constant for the complex coming apart. Lower therefore signals tighter binding. For B1, the Ki was 15700 nM in test [15]; 10000 nM in test [16]; above 260000 nM in test [17]; 2050 nM in test [18]; 850 nM in [19]; 533 nM in test [20]. Besides, the Ki in [21] is 783 nM; in [23], 1000 nM; in test [24], above 50000 nM; in [25] it was 330 nM; in [26], 600 nM; in test [27], 1200 nM. In test [22], the Kd is 121 nM.

B2: Formyl peptide receptor (FPR W190/N192), P21462 (protein)
chain: METNSSLPTNISGGTPAVSAGYLFLDIITYLVFAVTFVLGVLGNGLVIWVAGFRMTHTVTTISYLNLAVADFCFTSTLPFFMVRKAMGGHWPFGWFLCKFVFTIVDINLFGSVFLIALIALDRCVCVLHPVWTQNHRTVSLAKKVIIGPWVMALLLTLPVIIRVTTVPGKTGTVACTFNFSPWTNDPKEWINVAVAMLTVRGIIRFIIGFSAPMSIVAVSYGLIATKIHKQGLIKSSRPLRVLSFVAAAFFLCWSPYQVVALIATVRIRELLQGMYKEIGIAVDVTSALAFFNSCLNPMLYVFMGQDFRERLIHALPASLERALTEDSTQTSDTATNSTLPSAEVELQAK
Regarding B2, the inhibitory constant (Ki) in [24] is above 50000 nM; in test [25] it was 840 nM.

Values taken from article PMC2075610 (Biochimica et Biophysica Acta. Molecular Basis of Disease, 2006).
